Assay results as given in patent US20180221329A1, “CIS- AND TRANS-SUFFRUTICOSOL D AS THERAPEUTIC AGENTS” (MIDDLE TENNESSEE STATE UNIVERSITY, priority 2015, published 2018).

How the values were obtained:
Format in all cases: cell-based, human
phosphorylated NF-κB p65 = test: Western blotting analysis of TNF-α-induced NF-κB p65 phosphorylation; details: 50 μM, 3 h, then 10 ng/mL TNF-α 30 min, A549
Protocol: Western blotting analysis. A549 cells were treated with 50 μM of cis- or trans-suffruticosol D for 3 h then incubated with 10 ng/mL of TNF-α for 30 min. Cells treated with the NF-κB inhibitor Bay11-7082 (10 μM) (Sigma-Aldrich) were used as a positive control, and cells treated with vehicle only were used as a negative control. After treatment, the cells were lysed using M-PER mammalian protein extraction reagent (Pierce PERBIO, Rockford, Ill.) containing proteinase and phosphatase inhibitors (Sigma-Aldrich, USA) and centrifuged at 13,000 rpm for 5 min at 4° C. A Pierce BCA protein assay kit (Thermo Fisher Scientific, Waltham, Mass., USA) was used to determined protein concentrations. Proteins were separated on a 4-20% Tris Glycine gel (Thermo Fisher Scientific, Waltham, Mass., USA), and electrophoretically transferred to a PVDF membrane. The following primary antibodies were used: phosphorylated-NF-κB p65, NF-κB p65 (Cell Signaling Technology, Danver, Mass.) and actin (Santa Cruz Biotechnology, Dallas, Tex.). The membrane was incubated with the primary antibodies at a 1:1000 concentration at 4° C. overnight. After washing with 1×PBS 5 times, the membrane was incubated for 2 h at room temperature with HRP linked anti-rabbit IgG secondary antibodies. […]

[1] = system: apoptotic proteins in A549 cells; test: Apoptosis antibody array; details: 50 μM, 6 h
Protocol: F, Effect of cis- or trans-suffruticosol D on key regulatory proteins of apoptosis, Hsp60, Hsp70, survivin, and X-linked inhibitor of apoptosis protein (XIAP) (n=4).
Apoptosis antibody array. The Human Apoptosis Antibody Array Kit (RayBiotech, Inc., Norcross, Ga. USA) was used to evaluate apoptotic protein expression according to the manufacturer's instructions. A549 cells were plated at 8,000 cells/well intensity in a 96-well plate and then treated with cis or trans-suffruticosol D at a concentration of 50 μM for 6 h. The cells were lysed in lysis buffer with protease inhibitors. The cell lysates were concentrated using a protein concentration column (EMD Millipore, Billerica, Mass., USA) to a total protein concentration of 2 mg/ml. The samples were then diluted 10 fold with assay buffer and incubated with an array membrane for 2 h at room temperature, and washed with washing buffer five times. Subsequently, the cocktail of biotin-conjugated antibody mix was added to the membrane and incubated overnight at 4° C. The samples were then incubated with HRP-conjugated streptavidin for 2 h at room temperature and chemiluminescence substrate was used to detect the signal. Image Studio software (LI-COR Biotechnology) was used to quantify the intensity of each array dot and then normalized to the internal control.

A549 cells = test: Apoptosis assay (Annexin V/7-AAD flow cytometry); details: 24 h
Protocol: FIGS. 2A-E depict induction of apoptosis by cis- and trans-suffruticosol D in A549 cells. After 24 h treatment by cis- or trans-suffruticosol D, A549 cells were stained with Annexin V/7-amino-actinomycin D (7-AAD) and the percentage of apoptotic cells, as measured by fluorescence intensity, was assessed by flow cytometry. Cells treated with the vehicle, 1% dimethylsulfoxide, DMSO, only served as a negative control.
Apoptosis assay. The FlowCellect Annexin Red Kit (EMD Millipore, Billerica, Mass., USA) was used to determine the apoptosis rate in A549 cells according to the manufacturer's instructions. Briefly, A549 cells were plated in 96-well plates. After a 24 h treatment with cis- or trans-suffruticosol D at concentrations of 100, 32, and 10 μM, the floating and attached cells were collected for analysis. The cells were centrifuged at 700×g for 7 min and were resuspended in 100 μL Assay Buffer (EMD Millipore, Billerica, Mass., USA). Afterwards, the cells were stained with annexin-V for 15 min and 7-amino-actinomycin D (7-AAD) for 5 min, and examined with a Guava EasyCyte Flow Cytometer (EMD Millipore, Billerica, Mass., USA). Data was analyzed using Guava InCyte software.

A549-GFP cells = test: Cell motility assay (fluorescent bead track area); details: 18 h, medium with 10% FBS
Protocol: FIGS. 4A and 4B depict cell motility changes induced by cis- and trans-suffruticosol D in A549 cells. A549-GFP cells were seeded in 96-well plate with a monolayer of fluorescent beads. After treatment with cis- or trans-suffruticosol D for 18 h, individual cell movement was evaluated by measuring the fluorescent track area. Cells treated with serum free medium served as a negative control and cells treated with medium containing 10% serum served as a positive control.
Cell motility assay. A 96-well collagen plate (Corning, N.Y., USA) was coated with blue fluorescent beads (Life Technologies, Eugene, Oreg., USA) as follows. The beads were centrifuged for 1 min at 14,000 g and washed twice with PBS, then 75 μl beads were added to each well of the 96-well collagen plate and incubated for 1 h at 37° C. The cells were seeded on the lawn of fluorescent beads and the sizes of the tracks generated by migrating cells were measured. After the plate was washed 5 times with PBS, A549-GFP cells were seeded at 500 cells/well in the coated plate and incubated for 1 h at 37° C. Subsequently the cells were treated with different concentrations of cis- or trans-suffruticosol D in medium containing 10% FBS for 18 h. Cells treated with serum-free medium serve as the negative control and cells treated with medium containing 10% FBS serve as the positive control. Cell tracks were imaged using an Arrayscan VTI HCS reader (Thermo Scientific, Waltham, Mass., USA) and the data was analyzed by vHCS Scan software. The mean of the full track area per cell for the test compound and the controls was calculated.

In the case of Oc1ccc(C=Cc2c3c(cc4c2[C@@H](c2cc(O)cc(O)c2)[C@H](c2ccc(O)cc2)O4)O[C@H](c2ccc(O)cc2)[C@@H]3c2cc(O)cc(O)c2)cc1 [cis-suffruticosol D], the “expression of phosphorylated NF-κB p65 upon TNF-α stimulation” value (phosphorylated NF-κB p65) is reported as “blocked as effectively as the blockage caused by the Bay11-7082 inhibitor control”, the Hsp60 expression [1] is reported as “significant down regulation” and the Hsp70 expression [1] is reported as “significant down regulation”. For the same compound, the “X-linked inhibitor of apoptosis protein (XIAP) expression” value [1] was “significant down regulation”, the survivin expression [1] was “significant down regulation” and the “A549 cells induced into apoptosis” value (A549 cells; 10 μM) was 22.2%. The “A549 cells induced into apoptosis” value (A549 cells; 32 μM) was 27.1%, the “A549 cells induced into apoptosis” value (A549 cells; 100 μM) was 45.3% and the “decrease of A549 cell motility” value (A549-GFP cells; 10 μM) was 42.3%. For the same compound, the “decrease of A549 cell motility” value (A549-GFP cells; 32 μM) was 42.0% and the “decrease of A549 cell motility” value (A549-GFP cells; 100 μM) was 50.4%.

Oc1ccc(/C=C/c2c3c(cc4c2[C@@H](c2cc(O)cc(O)c2)[C@H](c2ccc(O)cc2)O4)O[C@H](c2ccc(O)cc2)[C@@H]3c2cc(O)cc(O)c2)cc1 [trans-suffruticosol D] was tested, and the “expression of phosphorylated NF-κB p65 upon TNF-α stimulation” value (phosphorylated NF-κB p65) was “almost completely blocked”, the Hsp60 expression [1] was “significant down regulation” and the Hsp70 expression [1] was “significant down regulation”. The “X-linked inhibitor of apoptosis protein (XIAP) expression” value [1] was “significant down regulation”, the survivin expression [1] was “significant down regulation” and the “A549 cells induced into apoptosis” value (A549 cells; 10 μM) was 30.1%. The “A549 cells induced into apoptosis” value (A549 cells; 32 μM) was 39.8%, the “A549 cells induced into apoptosis” value (A549 cells; 100 μM) was 41.9% and the “decrease of A549 cell motility” value (A549-GFP cells; 10 μM) was 40.7%. For the same compound, the “decrease of A549 cell motility” value (A549-GFP cells; 32 μM) was 40.7% and the “decrease of A549 cell motility” value (A549-GFP cells; 100 μM) was 54.9%.
